The molecules below were run against T1, Tyrosine-protein phosphatase non-receptor type 1 (Homo sapiens, UniProt P18031) (assay: Concentration required for 50% inhibition of tyrosine phosphatase 1B).
T1 sequence (P18031 whole entry): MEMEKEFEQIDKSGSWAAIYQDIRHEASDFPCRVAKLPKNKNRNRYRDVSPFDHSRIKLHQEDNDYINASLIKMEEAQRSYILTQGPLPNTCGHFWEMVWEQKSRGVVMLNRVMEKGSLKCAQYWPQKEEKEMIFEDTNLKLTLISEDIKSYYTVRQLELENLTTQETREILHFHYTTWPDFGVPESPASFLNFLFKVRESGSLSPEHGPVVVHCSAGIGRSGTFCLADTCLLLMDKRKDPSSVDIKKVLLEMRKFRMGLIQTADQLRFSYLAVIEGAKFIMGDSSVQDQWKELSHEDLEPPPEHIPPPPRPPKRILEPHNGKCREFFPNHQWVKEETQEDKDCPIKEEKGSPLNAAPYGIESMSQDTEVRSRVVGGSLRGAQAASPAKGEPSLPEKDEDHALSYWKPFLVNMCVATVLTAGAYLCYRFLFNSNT
`O=C(O)CNc1cc(-c2ccc(-c3c(Cc4ccccc4)oc4ccccc34)cc2)ccc1OCCc1ccccc1` [[4'-(2-Benzyl-benzofuran-3-yl)-4-phenethyloxy-biphenyl-3-ylamino]-acetic acid] was tested, and the IC50 was 83.1 nM. In the case of `O=C(O)c1cc(S(=O)(=O)Oc2ccc(-c3ccc(-c4c(Cc5ccccc5)oc5ccccc45)cc3)cc2)ccc1O` [5-[4''-(2-Benzyl-benzofuran-3-yl)-biphenyl-4-yloxysulfonyl]-2-hydroxy-benzoic acid], the IC50 is reported as 27.5 nM. `O=C(O)[C@@H](Cc1ccccc1)Oc1ccc(-c2ccc(-c3c(Cc4ccccc4)sc4ccccc34)cc2)cc1Br` gave an IC50 of 58.8 nM.
